Experimental data as given in patent US12661410B2, “Compounds for targeted degradation of RET” (C4 Therapeutics, Inc., priority 2020, dated 2026).
Residue numbers refer to the chain shown, from its start.

Tests used:
RET(KD: 658-1114 G810R) = biological target: T1, RET(KD: 658-1114 G810R) (Homo sapiens, UniProt P07949, G810R); assay: HiBiT-Degradation, RET G810R degradation assay (Nano-Glo HiBiT Lytic), 293T.165 cells; assay type: cell-based
T1 construct: 658-1114; expressed in transfected cells; host or cells: 293T.165 (293T cells, generated in-house)
T1 sequence (P07949 658-1114 G810R): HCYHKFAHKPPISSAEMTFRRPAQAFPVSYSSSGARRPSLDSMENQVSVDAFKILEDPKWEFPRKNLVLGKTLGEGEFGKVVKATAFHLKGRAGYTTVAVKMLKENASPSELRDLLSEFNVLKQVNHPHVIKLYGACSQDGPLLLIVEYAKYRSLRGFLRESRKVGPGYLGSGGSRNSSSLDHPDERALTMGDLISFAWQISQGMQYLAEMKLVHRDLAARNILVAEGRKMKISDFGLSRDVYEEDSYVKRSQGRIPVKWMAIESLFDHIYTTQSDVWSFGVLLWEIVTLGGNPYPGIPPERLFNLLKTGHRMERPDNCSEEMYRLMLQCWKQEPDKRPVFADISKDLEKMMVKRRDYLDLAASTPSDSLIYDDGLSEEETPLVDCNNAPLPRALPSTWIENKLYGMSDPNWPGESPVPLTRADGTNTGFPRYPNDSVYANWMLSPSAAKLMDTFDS
In short: (§1)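 Engineered 293T cells carry a HiBiT tag on the RET kinase domain, either wild type (line 293T.144) or G810R (line 293T.165). Compounds act for 6 h across a 10 μM-top, half-log 11-point range. Lytic HiBiT luminescence gives remaining protein, fitted for DC50 and Emax.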

RET (658-1114) = biological target: T2, RET (658-1114) (Homo sapiens, UniProt P07949); assay: HiBiT-Degradation, RET wild-type degradation assay (Nano-Glo HiBiT Lytic), 293T.144 cells; assay type: cell-based
T2 construct: 658-1114; expressed in transfected cells; host or cells: 293T.144 (293T cells, generated in-house)
T2 sequence (P07949 658-1114): T1 sequence (P07949 658-1114 G810R) with R153G
In short: as §1

293T.165 RET(KD: 658-1114 G810R) 6.0 hours (IP) [nM] (RET(KD: 658-1114 G810R)): ++++ (<50 nM = ++++) | Emax (RET(KD: 658-1114 G810R); 6.0 hours, % remaining protein, read-out: 293T.165 RET(KD: 658-1114 G810R) 6.0 hours (Emax)): < 30% | DC50 (RET(KD: 658-1114 G810R); 6.0 hours, half-maximal degradation concentration, read-out: 293T.165 RET(KD: 658-1114 G810R) 6.0 hours (DC50)): < 0.05 µM | 293T.144 RET (658-1114) 6.0 hours (IP) [nM] (RET (658-1114)): ++++ (<50 nM = ++++) | Emax (RET (658-1114); 6.0 hours, % remaining protein, read-out: 293T.144 RET (658-1114) 6.0 hours (Emax)): < 30% | DC50 (RET (658-1114); 6.0 hours, half-maximal degradation concentration, read-out: 293T.144 RET (658-1114) 6.0 hours (DC50)): < 0.05 µM
SMILES: N#Cc1cnn2cc(-c3cnn([C@H]4CC[C@@H](N5CCN(c6c(F)cc(NC7CCC(=O)NC7=O)cc6F)CC5)CC4)c3)cc(-c3ccc(N4CCC5(CC4)OCc4cccnc45)nc3)c12 (single isomer, unassigned) [Compound 202, 4-(6-(5H-spiro[furo[3,4-b]pyridine-7,4′-piperidin]-1′-yl)pyridin-3-yl)-6-(1-((1s, 4s)-4-(4-(4-((2,6-dioxopiperidin-3-yl)amino)-2,6-difluorophenyl)piperazin-1-yl)cyclohexyl)-1H-pyrazol-4-yl)pyrazolo[1,5-a]pyridine-3-carbonitrile]
